Converted amounts (≈) assume the structure as drawn.
Test: Dissolution assessment: solubility in FaSSIF
Assay type: physicochemical
Conditions: FaSSIF pH 6.5, 37° C., 600 rpm, target concentration 1.0 mg/mL
Experimental: An amount of Compound A (about 6 mg) and an amorphous solid dispersion (equivalent to around 6 mg Compound A) were weighed into separate 8 ml bottle, and 6 ml FaSSIF (Fasted state simulated intestinal fluid) was added (target concentration 1.0 mg/mL). The suspensions were stirred using a thermomixer at 37° C. under 600 rpm and 200 μL of suspensions were withdrawn at pre-set time intervals (such as 5 min) and then centrifuged at 14000 rpm for 4 min. Then, 100 μL of supernatant was diluted with 500 μL ACN (Acetonitrile) to prevent precipitation, and was analyzed by HPLC.
FaSSIF was prepared by following steps: 1) Place 0.1024 g sodium hydroxide, 0.7518 g sodium dihydrogen phosphate anhydrous and 1.5470 g sodium chloride in a 250 mL volumetric flask, add about 225 mL water, and adjust the pH to 6.5 with 1 N sodium hydroxide or 1N hydrochloric acid. Make up to volume (250 mL) with pure water. 2) Place and dissolve 0.4480 g SIF Powder Original with 100 mL of buffer (from step 1) in a 200 mL volumetric flask, add water to volume and mix well.

## COC(=O)OCOc1c2n(ccc1=O)N([C@H]1c3ccccc3CSc3c1ccc(F)c3F)CC1(CC1)C2=O [Sample 1, [1-((11S)-7,8-difluoro(6H,11H-dibenzo[c,f]thiepin-11-yl))-4,6-dioxospiro[1,2,3,9-tetrahydropyridino[1,2-e]pyridazine-3,1′-cyclopropane]-5-yloxy]methyl methoxyformate]
5 min
  Solubility 5 min: 4.95 µg/mL (≈ 9.16 µM)
15 min
  Solubility 15 min: 4.89 µg/mL (≈ 9.05 µM)
